Assay type in all cases: cell-based, human
Assay [1] has as its system CD15+/CD14− cells. Description: Phagocytosis assay with pHrodo green Staphylococcus aureus Bioparticles (Example 39). Conditions: +Formula I Granulocyte Differentiation Cultures, day 13; 45 minutes at 37° C. How it is done: On day 13 of Granulocyte Differentiation Culture, a portion of the culture was removed for in vitro analysis of granulocyte function through two separate assays for phagocytosis and respiratory burst. In the phagocytosis assay, the function of the cultured cells in ingesting bacteria was measured. pHrodo green Staphylococcus aureus Bioparticles (ThermoFisher), which fluoresce only when in an acidic environment such as a cellular phagosome following phagocytosis, were first treated with an opsonizing reagent to mark the particles for phagocytosis. The particles were then added to cells and incubated at 37° C. for 45 minutes. “Ice” control samples were incubated on ice during this period to prevent endocytosis and enable a measure of background fluorescence. Following this incubation, cells were stained with antibodies to CD15 and CD14, washed thoroughly, then analyzed via flow cytometry on an Attune flow cytometer. CD15+/CD14− cells were quantified for presence of phagocytosed particles.

The test system of assay [2] is CD15+/CD14− cells. Description: Respiratory burst assay, dihydrorhodamine-123 / PMA (Example 39). To be noted: Formula I-expanded Differentiation Cultures, day 13; 200 nM PMA 30 minutes. How it is done: On day 13 of Granulocyte Differentiation Culture, a portion of the culture was removed for in vitro analysis of granulocyte function through two separate assays for phagocytosis and respiratory burst.
In the respiratory burst assay, the ability of cells to generate reactive oxygen species (used to kill ingested bacteria) was measured. Cells were first pulsed for 15 minutes with dihydrorhodamine-123, a reagent that fluoresces only after it has been oxidized to rhodamine 123. Following this incubation, cells were treated for 30 minutes with 200 nM phorbol 12-myristate 13-acetate (PMA) to non-specifically activate the respiratory burst. Control samples without PMA were also prepared. Following this incubation, cells were stained with antibodies to CD15 and CD14, washed thoroughly, then analyzed via flow cytometry on an Attune flow cytometer. CD15+/CD14− cells were quantified for rhodamine 123 fluorescence, indicating activation of oxidative burst.

Assay [3] deals with CD15+ cells derived from cord blood CD34+ cells. Description: Progenitor Differentiation and Maturation Cultures, CD15+ output (Example 42). The source says: Progenitor Differentiation Cultures were initiated following 14, 28, 42 and 64 days of CD34 expansion culture. Differentiation Sequences were created by culturing cells in a series of Differentiation Medias, for six or seven days. Differentiation Medias were made with purified cytokines: SCF, G-CSF, GM-CSF, FLT3L, IL-3, IL-6, TPO (all from R&D Systems), prepared in either StemSpan SFEM I or RPMI+10% FBS, as indicated in Table 12A and Table 12B below. Approximately 5,000-10,000 CD34+ cells were seeded into the “Day 0 media” indicated in Table 13 in 12-well plates at the beginning of the Differentiation Culture. At day two or three, a portion of cells was seeded into the subsequent media in the Sequence. If media was to be changed to a different Differentiation Media at a given day, the cells were first placed into 15 mL conical tubes and centrifuged for 5 minutes at 300×g. All supernatant was removed prior to resuspension in new media and re-plating. At days 6 or 7, as indicated in Table 13 and Table 15, a portion of cells was analyzed. […]
A number of quantities were calculated to describe the output of Differentiation Culture and the combined effects of Expansion and Differentiation Culture. These quantities and their relationships are as described in Example 41 and depicted in FIG. 68.

Turning to `CC(C)(C)C(=O)Nc1ccc2c(c1)C(O)c1ccccc1-2` (stereo not shown) [Compound 1.010], the “CD15+ cells positive for phagocytosed particles” value in the assay on CD15+/CD14− cells [1] is listed as 89%. Moreover, the “cells that activated respiratory burst when stimulated with PMA” value in the assay with CD15+/CD14− cells [2] was 56%. Besides, in assay [3] (64 days of CD34+ expansion in +Formula I conditions, condition TT), the “fold increase of CD15+ cell output at days six or seven of Differentiation Culture” value was “about 43,000 fold”. Further, the “CD15+ cells as percentage of total live cells” value in assay [3] (expanded in +Formula I conditions 14, 28 and 42 days, Medias A, B, C, H or T, by 6 to 7 days) is over 47%.
